Reference: patent publication US10898481B2 (priority 2018, dated 2021)

What was measured:
mA2a/CHO = mA2a/CHO (Mus musculus (Mouse), UniProt Q60613); experiment: cAMP inhibition assay in mA2a/CHO cells, 10 μM adenosine; assay type: cell-based; settings: read-out: cAMP & FLIPR IC50 (nM) mA2a;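 also: compounds preincubated 30 min at 37 °C before the adenosine challenge, then 30 min further stimulation, readout after 60 min detection reagent incubation at room temperature in 384-well plates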
Protocol: (§1) hA2a/CHO, hA2b/CHO, hA3/CHO and mA2a/CHO (Genscript) were plated at 5×10^3 cells/well into 384-well polystyrene plates at the day of experiment. Compounds were pre-incubated with cells for 30 min at 37° C., 5% CO2. Then 10 μM adenosine was added to the cells and incubated for 30 min at 37° C., 5% CO2. Detection reagent (CISBIO) was added and the plates were incubated for 60 min at room temperature. The signal was captured by Envision.

hA2b/CHO = hA2b/CHO (Homo sapiens (Human), UniProt P29275); experiment: cAMP inhibition assay in hA2b/CHO cells, 10 μM adenosine; assay type: cell-based; settings: read-out: cAMP & FLIPR IC50 (nM) hA2b;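 also: cells exposed to compound 30 min at 37 °C, then stimulated with adenosine a further 30 min, cAMP read after 60 min at room temperature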
Protocol: as §1

hA2a/CHO = hA2a/CHO (Homo sapiens (Human), UniProt P29274); experiment: cAMP inhibition assay in hA2a/CHO cells, 10 μM adenosine; assay type: cell-based; settings: read-out: cAMP & FLIPR IC50 (nM) hA2a;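 also: compounds added to cells 30 min ahead of adenosine, then a further 30 min at 37 °C with adenosine before cAMP detection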
Protocol: as §1

[1] = molecular target: hADORA1/CHO (hA1 expressing) cells (Homo sapiens (Human), UniProt P30542); experiment: cell-based; settings: FLIPR inhibition, 10 μM adenosine, read-out: cAMP & FLIPR IC50 (nM) hA1
hADORA1/CHO (hA1 expressing) cells, sequence (P30542 whole entry): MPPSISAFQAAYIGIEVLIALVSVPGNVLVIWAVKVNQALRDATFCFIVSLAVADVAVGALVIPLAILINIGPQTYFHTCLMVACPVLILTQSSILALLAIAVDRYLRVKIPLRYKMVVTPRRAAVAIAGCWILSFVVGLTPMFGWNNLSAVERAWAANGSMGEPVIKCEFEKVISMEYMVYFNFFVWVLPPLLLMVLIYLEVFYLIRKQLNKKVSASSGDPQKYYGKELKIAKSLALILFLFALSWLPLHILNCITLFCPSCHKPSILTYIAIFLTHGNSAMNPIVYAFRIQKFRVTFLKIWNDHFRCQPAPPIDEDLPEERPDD

mA2a/CHO, sequence (Q60613 whole entry): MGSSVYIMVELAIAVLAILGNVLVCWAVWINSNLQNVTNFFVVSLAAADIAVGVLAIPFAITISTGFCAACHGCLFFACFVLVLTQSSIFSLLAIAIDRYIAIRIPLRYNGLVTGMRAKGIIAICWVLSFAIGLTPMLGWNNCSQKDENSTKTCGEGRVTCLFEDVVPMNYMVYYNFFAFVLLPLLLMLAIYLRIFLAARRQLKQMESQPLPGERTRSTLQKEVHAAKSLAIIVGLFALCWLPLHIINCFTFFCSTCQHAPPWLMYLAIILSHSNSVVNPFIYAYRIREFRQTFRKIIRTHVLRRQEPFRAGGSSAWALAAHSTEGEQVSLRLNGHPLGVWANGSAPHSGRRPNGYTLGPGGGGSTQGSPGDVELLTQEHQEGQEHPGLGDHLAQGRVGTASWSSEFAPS
hA2a/CHO, sequence (P29274 whole entry): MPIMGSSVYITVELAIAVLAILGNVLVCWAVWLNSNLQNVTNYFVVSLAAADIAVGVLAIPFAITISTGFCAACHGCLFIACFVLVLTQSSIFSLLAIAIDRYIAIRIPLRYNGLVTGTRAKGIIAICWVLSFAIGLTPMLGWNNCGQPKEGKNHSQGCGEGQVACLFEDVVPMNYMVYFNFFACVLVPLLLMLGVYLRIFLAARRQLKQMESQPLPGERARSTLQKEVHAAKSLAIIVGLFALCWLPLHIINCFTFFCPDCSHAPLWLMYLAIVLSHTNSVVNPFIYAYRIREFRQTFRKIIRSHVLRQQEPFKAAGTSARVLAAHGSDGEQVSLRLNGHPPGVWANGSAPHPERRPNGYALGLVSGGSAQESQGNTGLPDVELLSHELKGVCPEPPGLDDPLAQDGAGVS
hA2b/CHO, sequence (P29275 whole entry): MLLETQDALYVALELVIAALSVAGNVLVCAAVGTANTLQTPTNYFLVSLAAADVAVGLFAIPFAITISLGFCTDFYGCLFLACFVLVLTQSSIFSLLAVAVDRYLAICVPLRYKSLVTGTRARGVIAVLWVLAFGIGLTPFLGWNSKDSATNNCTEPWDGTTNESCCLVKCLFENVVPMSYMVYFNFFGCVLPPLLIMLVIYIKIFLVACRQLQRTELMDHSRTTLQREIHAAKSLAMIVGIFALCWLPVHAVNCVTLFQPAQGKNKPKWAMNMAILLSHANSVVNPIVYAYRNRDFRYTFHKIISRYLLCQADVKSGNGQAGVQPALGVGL

| Structure (SMILES) | IC50 (mA2a/CHO) | IC50 (hA2b/CHO) | IC50 (hA2a/CHO) | IC50 [1] |
| --- | --- | --- | --- | --- |
| Cc1cnc2ccc(-c3nc(C(=O)NCC4CCCN4C)c(N)nc3-c3ncco3)cn12 (single isomer, unassigned) [Example 120] | 167 nM | 775 nM | – | – |
| Cc1cnc2ccc(-c3nc(C(=O)NCC4CCCN4C)c(N)nc3-c3ncco3)cn12 (single isomer, unassigned) [Example 121] | 204 nM | 747 nM | – | – |
| Cc1cnc2ccc(-c3nc(C(=O)NCC4CCCCN4C)c(N)nc3-c3ncco3)cn12 (single isomer, unassigned; isomer 2) [Example 125, 3-amino-6-(3-methylimidazo[1,2-a]pyridin-6-yl)-N-((1-methylpiperidin-2-yl)methyl)-5-(oxazol-2-yl)pyrazine-2-carboxamide (isomer 2)] | ≥ 10000 nM | ≥ 10000 nM | 1440 nM | – |
| Cc1cnc2ccc(-c3nc(C(=O)NC(C)C4CCCO4)c(N)nc3-c3ncco3)cn12 (single isomer, unassigned; isomer 4) [Example 258, 3-amino-6-(3-methylimidazo[1,2-a]pyridin-6-yl)-5-(oxazol-2-yl)-N-(1-(tetrahydrofuran-2-yl)ethyl)pyrazine-2-carboxamide (isomer 4)] | – | – | 8.1 nM | 2510 nM |
| Cc1cnc2ccc(-c3nc(CNC(=O)C4CCCO4)c(N)nc3-c3ccc(F)cc3)cn12 (stereo in doubt) [Cmpd. 268, (2S)—N-[[3-amino-5-(4-fluorophenyl)-6-[3-methyl-imidazo-[1,2-a]pyridin-6-yl]pyrazin-2-yl]methyl]oxolane-2-carboxamide] | – | – | 0.2 nM | 6.7 nM |
| Cc1cnc2ccc(-c3nc(C(=O)NCc4cccc(N5CC(CN(C)C)C5)n4)c(N)nc3-c3ncco3)cn12 [Cmpd. 261, 3-amino-N-((6-(3-((dimethylamino)methyl)azetidin-1-yl)pyridin-2-yl)methyl)-6-(3-methylimidazo[1,2-a]pyridin-6-yl)-5-(oxazol-2-yl)pyrazine-2-carboxamide] | – | – | 0.4 nM | 158 nM |
| Cc1cc(-c2nc(C(=O)NCc3ncccc3F)c(N)nc2-c2ccc(F)cc2)cc(C)n1 [Example 1, 3-amino-6-(2,6-dimethylpyridin-4-yl)-5-(4-fluorophenyl)-N-((3-fluoropyridin-2-yl)methyl)pyrazine-2-carboxamide] | 1060 nM | ≥ 10000 nM | 151 nM | – |
| Cc1cc(-c2nc(C(=O)NCc3ccccc3C(F)(F)F)c(N)nc2-c2ccc(F)cc2)cc(C)n1 [Example 53, 3-amino-6-(2,6-dimethylpyridin-4-yl)-5-(4-fluorophenyl)-N-(2-(trifluoromethyl)benzyl)pyrazine-2-carboxamide] | 529 nM | ≥ 10000 nM | 60 nM | – |
| Cc1ccn(-c2nc(N)c(C(=O)Nc3ccccc3OC(F)F)nc2-c2ccc(=O)n(C)c2)n1 [Example 59, 3-amino-N-(2-(difluoromethoxy)phenyl)-5-(3-methyl-1H-pyrazol-1-yl)-6-(1-methyl-6-oxo-1,6-dihydropyridin-3-yl)pyrazine-2-carboxamide] | 66 nM | ≥ 10000 nM | 29 nM | – |
| Cc1cc(-c2nc(C(=O)Nc3ccccc3OC(F)F)c(N)nc2-n2ccc(C)n2)cc(N)n1 [Example 60, 3-amino-6-(2-amino-6-methylpyridin-4-yl)-N-(2-(difluoromethoxy)phenyl)-5-(3-methyl-1H-pyrazol-1-yl)pyrazine-2-carboxamide] | 150 nM | ≥ 10000 nM | 24 nM | – |
| Cc1cc(-c2nc(C(=O)NCc3c(F)cccc3F)c(N)nc2-c2ccc(C)o2)cc(C)n1 [Example 62, 3-amino-N-(2,6-difluorobenzyl)-6-(2,6-dimethylpyridin-4-yl)-5-(5-methylfuran-2-yl)pyrazine-2-carboxamide] | 28 nM | ≥ 10000 nM | 1.8 nM | – |
| Cc1cc(-c2nc(C(=O)NCc3ccccc3OC(F)(F)F)c(N)nc2-c2ccc(F)cc2)cc(C)n1 [Example 65, 3-amino-6-(2,6-dimethylpyridin-4-yl)-5-(4-fluorophenyl)-N-(2-(trifluoromethoxy)benzyl)pyrazine-2-carboxamide] | 50 nM | – | 19 nM | – |
| CNCCOc1cccnc1CNC(=O)c1nc(-c2ccc3ncn(C)c3c2)c(-c2ccc(F)cc2)nc1N [Example 115, 3-amino-5-(4-fluorophenyl)-6-(1-methyl-1H-1,3-benzodiazol-6-yl)-N-([3-[2-(methylamino)ethoxy]pyridin-2-yl]methyl)pyrazine-2-carboxamide] | 12 nM | 596 nM | – | – |
| Cc1cnc2ccc(-c3nc(C(=O)NC[C@H]4CCCN4C)c(N)nc3-c3ccc(F)cc3)cn12 [Example 138, 3-amino-5-(4-fluorophenyl)-6-[3-methylimidazo[1,2-a]pyridin-6-yl]-N-[[(2R)-1-methylpyrrolidin-2-yl]methyl]pyrazine-2-carboxamide] | 70 nM | 959 nM | – | – |
| Cc1cnc2ccc(-c3nc(C(=O)NC[C@@H]4CCCN4C)c(N)nc3-c3ccc(F)cc3)cn12 [Example 139, (S)-3-amino-5-(4-fluorophenyl)-6-(3-methylimidazo[1,2-a]pyridin-6-yl)-N-((1-methylpyrrolidin-2-yl)methyl) pyrazine-2-carboxamide] | 66 nM | 932 nM | – | – |
| Cc1cnc2ccc(-c3nc(C(=O)NCc4cccc(N5C[C@H]6CC[C@@H](C5)N6C)n4)c(N)nc3-c3ncco3)cn12 [Example 173, 3-amino-N-((6-((1R,5S)-8-methyl-3,8-diazabicyclo[3.2.1]octan-3-yl)pyridin-2-yl)methyl)-6-(3-methylimidazo[1,2-a]pyridin-6-yl)-5-(oxazol-2-yl)pyrazine-2-carboxamide] | – | – | 5.1 nM | 6500 nM |
| Cc1cnc2ccc(-c3nc(C(=O)NCc4cccc(C5CCN(C)CC5)n4)c(N)nc3-c3ncco3)cn12 [Example 176, 3-amino-6-(3-methylimidazo[1,2-a]pyridin-6-yl)-N-((6-(1-methylpiperidin-4-yl)pyridin-2-yl)methyl)-5-(oxazol-2-yl) pyrazine-2-carboxamide] | – | – | 11 nM | 599 nM |
| Cc1cnc2ccc(-c3nc(C(=O)NCCn4ccccc4=O)c(N)nc3-c3ncco3)cn12 [Example 237, 3-amino-6-(3-methylimidazo[1,2-a]pyridin-6-yl)-5-(oxazol-2-yl)-N-(2-(2-oxopyridin-1(2H)-yl)ethyl)pyrazine-2-carboxamide] | – | – | 5.1 nM | 71 nM |
| Cc1cnc2ccc(-c3nc(C(=O)NCc4c(F)cccc4F)c(N)nc3N3CCOCC3)cn12 [Example 238, 3-amino-N-(2,6-difluorobenzyl)-6-(3-methylimidazo[1,2-a]pyridin-6-yl)-5-morpholinopyrazine-2-carboxamide] | – | – | 0.5 nM | 401 nM |
| Cc1cnc2ccc(-c3nc(C(=O)NCC4CCOCC4)c(N)nc3-c3ncco3)cn12 [Example 239, 3-amino-6-(3-methylimidazo[1,2-a]pyridin-6-yl)-5-(oxazol-2-yl)-N-((tetrahydro-2H-pyran-4-yl)methyl) pyrazine-2-carboxamide] | – | – | 4.8 nM | 2960 nM |
| Cc1cnc2ccc(-c3nc(C(=O)N[C@@H]4CCOC4)c(N)nc3-c3ncco3)cn12 [Example 255, (R)-3-amino-6-(3-methylimidazo [1,2-a]pyridin-6-yl)-5-(oxazol-2-yl)-N-(tetrahydrofuran-3-yl)pyrazine-2-carboxamide] | – | – | 20 nM | 6850 nM |
| Cc1cnc2ccc(-c3nc(CNC(=O)[C@H]4CCOC4)c(N)nc3-c3ccc(F)cc3)cn12 [Example 264, (S)-N-((3-amino-5-(4-fluorophenyl)-6-(3-methylimidazo[1,2-a]pyridin-6-yl)pyrazin-2-yl)methyl)tetrahydrofuran-3-carboxamide] | – | – | 25 nM | 84 nM |
| Cc1cnc2ccc(-c3nc(CNC(=O)[C@@H]4CCCO4)c(N)nc3-c3ccc(F)cc3)cn12 [Example 265, (S)-N-((3-amino-5-(4-fluorophenyl)-6-(3-methylimidazo[1,2-a]pyridin-6-yl)pyrazin-2-yl)methyl)tetrahydrofuran-2-carboxamide] | – | – | 7.3 nM | 26 nM |
| Cc1cnc2ccc(-c3nc(C(=O)N[C@H]4C[C@H](N(C)C)C4)c(N)nc3-c3ncco3)cn12 [Example 271-2, Trans-3-amino-N-(3-(dimethylamino)cyclobutyl)-6-(3-methylimidazo[1,2-a]pyridin-6-yl)-5-(oxazol-2-yl)pyrazine-2-carboxamide] | – | – | 23 nM | 865 nM |
| Cc1cnc2ccc(-c3nc(CNC(=O)[C@@H]4CCOC4)c(N)nc3-c3ccc(F)cc3)cn12 [Example 275, (R)-N-((3-amino-5-(4-fluorophenyl)-6-(3-methylimidazo[1,2-a]pyridin-6-yl)pyrazin-2-yl)methyl)tetrahydrofuran-3-carboxamide] | – | – | 6.1 nM | 39 nM |
| Cc1cnc2ccc(-c3nc(C(=O)NCc4cccc(N5CCOCC5)n4)c(N)nc3-c3ncco3)cn12 [Example 276, 3-amino-6-[3-methylimidazo[1,2-a]pyridin-6-yl]-N-[[6-(morpholin-4-yl)pyridin-2-yl]methyl]-5-(1,3-oxazol-2-yl)pyrazine-2-carboxamide] | – | – | 3.1 nM | 3070 nM |
| Cc1cnc2ccc(-c3nc(C(=O)N[C@H]4CCOC4)c(N)nc3-c3ncco3)cn12 [Example 277, (S)-3-amino-6-(3-methylimidazo[1,2-a]pyridin-6-yl)-5-(oxazol-2-yl)-N-(tetrahydrofuran-3-yl)pyrazine-2-carboxamide] | – | – | 12 nM | 6560 nM |
| Cc1cnc2ccc(-c3nc(CNC(=O)[C@H]4CCCN4C)c(N)nc3-c3cccc(F)c3)cn12 [Example 278, (R)—N-((3-amino-5-(3-fluorophenyl)-6-(3-methylimidazo[1,2-a]pyridin-6-yl)pyrazin-2-yl)methyl)-1-methylpyrrolidine-2-carboxamide] | – | – | 0.4 nM | 12 nM |
